This is an account of results in ChEMBL document CHEMBL5335846, “Uncovering the Power of HSCCC: Separation of Diastereomeric and Regioisomeric Styrylpyrones from the Stem Bark of Goniothalamus leiocarpus” (J Nat Prod, 2024).

Activity calls are given as the source filed them. The calls are words filed in the database; no cut-off is given here.

For data set [1], the system named is Staphylococcus aureus. As to the kind of experiment: Synergistic antibacterial activity against Staphylococcus aureus SA1199B assessed as norfloxacin MIC. Format: functional.
The subject of data set [2] is Staphylococcus aureus. As to the kind of experiment: Potency index, ratio of test compound MIC to norfloxacin MIC for antibacterial activity against fluoroquinolone-resistant Staphylococcus aureus SA1199B assessed as inhibition of microbial growth. Format: functional.
For data set [3], the system named is MHCC97H. As to the kind of experiment: Cytotoxicity against human MHCC97H cells assessed as inhibition of cell growth incubated for 24 hrs by MTT assay. Format: functional, cell-based. For orientation: Tetrazolium assays rely on reduction of a dye to a coloured formazan, in cell work by metabolically active cells.
The nature of data set [4]: Cytotoxicity against HEK293T cells assessed as inhibition of cell growth incubated for 24 hrs by MTT assay. Format: toxicity, cell-based, HEK-293T. As to conditions: human.
Data set [5] has as its system Staphylococcus aureus. As to the kind of experiment: Antibacterial activity against Staphylococcus aureus SA1199B assessed as inhibition of microbial growth. The format is functional.
The subject of data set [6] is Staphylococcus aureus. As to the kind of experiment: Synergistic antibacterial activity against Staphylococcus aureus SA1199B assessed as fractional inhibitory concentration index in presence of norfloxacin. Format: functional.
For data set [7], the target named is T1, Quinolone resistance protein NorA (Staphylococcus aureus) (UniProt P0A0J7).
T1 sequence (whole entry): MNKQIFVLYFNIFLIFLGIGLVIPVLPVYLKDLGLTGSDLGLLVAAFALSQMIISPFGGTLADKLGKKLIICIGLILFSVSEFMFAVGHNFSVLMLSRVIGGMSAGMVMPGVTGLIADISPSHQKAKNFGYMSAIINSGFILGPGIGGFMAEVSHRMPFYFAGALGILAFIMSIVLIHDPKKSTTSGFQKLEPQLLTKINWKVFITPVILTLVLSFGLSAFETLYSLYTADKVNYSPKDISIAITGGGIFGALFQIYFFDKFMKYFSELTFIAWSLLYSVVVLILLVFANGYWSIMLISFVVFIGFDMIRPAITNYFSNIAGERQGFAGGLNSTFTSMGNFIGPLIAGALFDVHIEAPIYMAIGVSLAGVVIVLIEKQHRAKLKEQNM
In words: Inhibition of NorA efflux pump in norfloxacin-resisitant Staphylococcus aureus SA1199B overexpressing NorA gene assessed as reduction in EtBr efflux inhibition at 25 uM incubated for 20 mins by fluorometric assay.

Data set [8] in a line: Cytotoxicity against human LM3 cells assessed as inhibition of cell growth incubated for 24 hrs by MTT assay. The format is functional, cell-based. As to conditions: LM3, 24 h.
The test system of data set [9] is Staphylococcus aureus. In words: Synergistic antibacterial activity against Staphylococcus aureus SA1199B assessed as inhibition of microbial growth in presence of norfloxacin. The format is functional.
Data set [10] deals with HepG2. In words: Cytotoxicity against human HepG2 cells assessed as inhibition of cell growth incubated for 24 hrs by MTT assay. The format is functional, cell-based. The note with it: HepG2, 24 h.
Data set [11] deals with Staphylococcus aureus. As to the kind of experiment: Additive antibacterial activity against Staphylococcus aureus XU212 assessed as fractional inhibitory concentration index in presence of tetracycline. Format: functional.
In data set [12] the test system is Staphylococcus aureus. In words: Additive antibacterial activity against Staphylococcus aureus RN4220 assessed as fractional inhibitory concentration index in presence of streptomycin. Format: functional.
Data set [13] concerns Staphylococcus aureus. In words: Synergistic antibacterial activity against Staphylococcus aureus […] assessed as streptomycin MIC. Format: functional.
In data set [14] the test system is Staphylococcus aureus. In words: Synergistic antibacterial activity against Staphylococcus aureus XU212 assessed as inhibition of microbial growth in presence of tetracycline. The format is functional.
Data set [15] has as its system COLO 205. As to the kind of experiment: Cytotoxicity against human COLO 205 cells assessed as inhibition of cell growth incubated for 24 hrs by MTT assay. Format: functional, cell-based. As to conditions: COLO 205, 24 h.
Data set [16] relates to Staphylococcus aureus. As to the kind of experiment: Antibacterial activity against Staphylococcus aureus RN4220 assessed as inhibition of microbial growth. The format is functional.
The subject of data set [17] is Staphylococcus aureus. As to the kind of experiment: Antibacterial activity against Staphylococcus aureus XU212 assessed as inhibition of microbial growth. The format is functional.
The test system of data set [18] is SW-620. As to the kind of experiment: Cytotoxicity against human SW620 cells assessed as inhibition of cell growth incubated for 24 hrs by MTT assay. The format is functional, cell-based. As to conditions: SW-620, 24 h.
Data set [19] has as its system Staphylococcus aureus. As to the kind of experiment: Synergistic antibacterial activity against Staphylococcus aureus RN4220 assessed as inhibition of microbial growth in presence of streptomycin. Format: functional.
Data set [20] deals with Staphylococcus aureus. In words: Synergistic antibacterial activity against Staphylococcus aureus XU212 assessed as tetracyclin MIC. Format: functional.
Data set [21] relates to LS-513. As to the kind of experiment: Cytotoxicity against human LS-513 cells assessed as inhibition of cell growth incubated for 24 hrs by MTT assay. Format: functional, cell-based. The note with it: LS-513, 24 h.
The subject of data set [22] is Staphylococcus aureus. As to the kind of experiment: Synergistic antibacterial activity against Staphylococcus aureus RN4220 assessed as fractional inhibitory concentration index in presence of streptomycin. The format is functional.
Data set [23] deals with Staphylococcus aureus. In words: Antibacterial activity against fluoroquinolone-resistant Staphylococcus aureus SA1199B assessed as inhibition of microbial growth. Format: functional.

As for `O=C1C=CC[C@H]([C@@H](O)[C@H](c2ccccc2)c2c(O)cc(O)c3c2O[C@H](c2ccccc2)CC3=O)O1`, the MIC in data set [1] is 32 mg/L; in data set [5] it was 128 mg/L; in data set [9] it was 16 mg/L. Besides, the Ratio in data set [2] came to 4. Besides, the IC50 in data set [3], in [8] and in data set [10] was more than 100 µM each time. The IC50 at 24 h in [4] was more than 100 µM. The “fractional inhibitory concentration index (FICI)” value in data set [6] was 0.37. The inhibition result in data set [7] is “Active”.
In the case of `CCn1cc(C(=O)O)c(=O)c2cc(F)c(N3CCNCC3)cc21` [NORFLOXACIN], the MIC in data set [5] was determined as 128 mg/L.
Turning to `O=C1C=CC[C@@H]([C@H](O)[C@@H](c2ccccc2)c2c(O)cc(O)c3c2O[C@H](c2ccccc2)CC3=O)O1`, the MIC in data set [1] worked out at 32 mg/L; in [13] it was 16 mg/L; in data set [14], 64 mg/L; in [5], 256 mg/L; in data set [16], 64 mg/L; in data set [17], 512 mg/L. Further, the minimal inhibitory concentration (MIC) is 16 mg/L in data set [9], 16 mg/L in data set [19] and 64 mg/L in data set [20]. Moreover, the “fractional inhibitory concentration index (FICI)” value in data set [11] amounted to 0.62; in data set [12], 0.5; in data set [6] it was 0.31. For the same compound, in [2], the Ratio was 4. Besides, the IC50 in data set [3] was more than 100 µM; in data set [15], 12 µM; in data set [8], more than 100 µM; in data set [18], 3.9 µM; in data set [10], more than 100 µM; in data set [21], 2.4 µM. In addition, the 50% inhibitory concentration (IC50) at 24 h in data set [4] was more than 100 µM. Moreover, the inhibition entry in [7] was “Active”.
Take `O=C1C=CC[C@H]([C@@H](O)[C@@H](c2ccccc2)c2c(O)cc(O)c3c2O[C@H](c2ccccc2)CC3=O)O1`: the minimal inhibitory concentration (MIC) was 32 mg/L in data set [1], more than 512 mg/L in data set [5] and 64 mg/L in [9]. The 50% inhibitory concentration (IC50) in [3] was more than 100 µM; in [8], 82 µM; in data set [10] it was 82 µM. Moreover, in data set [4], the half-inhibitory concentration (IC50) at 24 h is more than 100 µM. Moreover, the “fractional inhibitory concentration index (FICI)” value in [6] turned out to be 0.37.
Consider `CN(C)[C@@H]1C(O)=C(C(N)=O)C(=O)[C@@]2(O)C(O)=C3C(=O)c4c(O)cccc4[C@@](C)(O)[C@H]3C[C@@H]12` [TETRACYCLINE], for which the MIC in [17] came to 128 mg/L.
Regarding `CNC(=O)c1cc(Oc2ccc(NC(=O)Nc3ccc(Cl)c(C(F)(F)F)c3)cc2)ccn1` [SORAFENIB], the IC50 in [3] amounted to 15 µM; in [8], 9.2 µM; in data set [10], 14 µM.
With `CN[C@@H]1[C@H](O[C@H]2[C@H](O[C@H]3[C@H](O)[C@@H](O)[C@H](N=C(N)N)[C@@H](O)[C@@H]3N=C(N)N)O[C@@H](C)[C@]2(O)C=O)O[C@@H](CO)[C@H](O)[C@H]1O` [STREPTOMYCIN], the minimum inhibitory concentration (MIC) in data set [16] came to 32 mg/L.
For `O=C1C=CC[C@H]([C@@H](O)[C@H](c2ccccc2)c2c(O)cc3c(c2O)C(=O)C[C@@H](c2ccccc2)O3)O1`, the MIC in [1] is 32 mg/L; in data set [13] it was 8 mg/L; in data set [14], 64 mg/L; in [5], more than 512 mg/L; in [16], 64 mg/L; in [17], more than 512 mg/L. Besides, the MIC in data set [9] stood at 16 mg/L; in data set [19], 16 mg/L; in data set [20], 64 mg/L. The “fractional inhibitory concentration index (FICI)” value stood at 0.62 in [11], 0.28 in data set [6] and 0.37 in [22]. For the same compound, the Ratio in [2] amounted to 4. In addition, the IC50 is more than 100 µM in data set [3]; 2.8 µM in data set [15]; 33 µM in data set [8]; 2.6 µM in data set [18]; more than 100 µM in [10]; 1.6 µM in [21]. Moreover, the IC50 at 24 h in data set [4] was more than 100 µM. Further, the inhibition result in data set [7] was “Active”.
As for `O=c1[nH]cc(F)c(=O)[nH]1` [FLUOROURACIL], the IC50 in data set [15] came to 32 µM; in data set [18], 43 µM; in [21] it was 84 µM.
`O=C1C=CC[C@H]([C@@H](O)[C@H](Oc2c(O)cc3c(c2O)C(=O)C[C@@H](c2ccccc2)O3)c2ccccc2)O1`: the MIC in [1] is 16 mg/L; in data set [5], more than 128 mg/L; in [23], 16 mg/L; in data set [9], 32 mg/L. In addition, the Ratio in [2] amounted to 8. In addition, the 50% inhibitory concentration (IC50) in [3], in data set [8] and in data set [10] was more than 100 µM in each case. Further, the IC50 at 24 h in data set [4] is more than 100 µM. Also, the “fractional inhibitory concentration index (FICI)” value in data set [6] was 0.25.
For `O=C1C=CC[C@@H]([C@@H](O)[C@H](Oc2c(O)cc3c(c2O)C(=O)C[C@@H](c2ccccc2)O3)c2ccccc2)O1`, the MIC was 16 mg/L in data set [1], more than 128 mg/L in data set [5], 16 mg/L in data set [23] and 16 mg/L in data set [9]. In addition, in data set [2], the Ratio came to 8. The half-inhibitory concentration (IC50) amounted to 41 µM in data set [3], 21 µM in [8] and 66 µM in data set [10]. For the same compound, the IC50 at 24 h in data set [4] was more than 100 µM. Also, the “fractional inhibitory concentration index (FICI)” value in [6] is on record as 0.18.
For `O=C1C=CC[C@@H]([C@@H](O)[C@@H](c2ccccc2)c2c(O)cc3c(c2O)C(=O)C[C@@H](c2ccccc2)O3)O1`, the MIC in data set [1] was 16 mg/L; in data set [13] it was 8 mg/L; in [14], 64 mg/L; in [5], more than 512 mg/L; in data set [16], 64 mg/L; in data set [17] it was more than 512 mg/L. In addition, the minimal inhibitory concentration (MIC) stood at 16 mg/L in [23], 8 mg/L in [9], 8 mg/L in [19] and 128 mg/L in [20]. The “fractional inhibitory concentration index (FICI)” value in data set [11] is reported as 0.62; in data set [6], 0.14; in data set [22], 0.37. In [2], the Ratio amounted to 8. For the same compound, the concentration for half-maximal inhibition (IC50) in data set [3] was found to be 63 µM; in data set [8], 30 µM; in data set [10], 63 µM. The IC50 at 24 h in data set [4] worked out at 90 µM. In addition, the inhibition entry in data set [7] was “Active”.
Turning to `O=C1C=CC[C@H]([C@H](O)[C@H](c2ccccc2)c2c(O)cc3c(c2O)C(=O)C[C@@H](c2ccccc2)O3)O1`, the half-maximal inhibitory concentration (IC50) in [3], in data set [8] and in data set [10] was more than 100 µM each time. In addition, the concentration for half-maximal inhibition (IC50) at 24 h in data set [4] was more than 100 µM.
For the compound `N#CC(C#N)=NNc1cccc(Cl)c1`, the inhibition result in data set [7] was “Active”.

What is called MIC is the lowest concentration found to suppress growth. For orientation: IC50 means the concentration needed to halve the response being measured.
